Results on three compounds are retold here after ChEMBL document CHEMBL1155697, “Chapecoderins A-C, new labdane-derived diterpenoids from Echinodorus macrophyllus” (J Nat Prod, 2000).

This test concerns L1210. Description: Cytotoxicity against mouse L1210 cells. The test is classed as functional, cell-based.

Converted amounts (≈) assume the structure as drawn. Bounds are passed on as bounds.

As to `CC(=O)C1=C(CCC2=CCOC2=O)[C@@]2(C)CCCC(C)(C)[C@@H]2C1` [CHAPECODERIN C], inhibition was half-maximal at 6 µg/mL (≈ 19 µM) (IC50).

With `CC(=O)CC[C@H]1C(C)(C)CCC[C@]1(C)C(=O)CCC1=CCOC1=O` [CHAPECODERIN A], the IC50 (as a rule, the concentration at which inhibition is half-maximal) was more than 10 µg/mL. In turn, `CC(=O)[C@@H]1C[C@H]2C(C)(C)CCC[C@]2(C)[C@@]1(O)CCC1=CCOC1=O` [CHAPECODERIN B] displayed an IC50 of 7.2 µg/mL (≈ 21.5 µM).
